Data taken from patent US20110077248A1, “IMIDAZOPYRIDINE AND RELATED ANALOGS AS SIRTUIN MODULATORS” (Sirtris Pharmaceuticals, Inc., priority 2008, published 2011).

Target: T1, SIRT1 (Homo sapiens, UniProt Q96EB6)
T1 construct: His-tag (N); made in house; host or cells: E. coli BL21(DE3), T7-promoter vector
T1 sequence (Q96EB6 1-747): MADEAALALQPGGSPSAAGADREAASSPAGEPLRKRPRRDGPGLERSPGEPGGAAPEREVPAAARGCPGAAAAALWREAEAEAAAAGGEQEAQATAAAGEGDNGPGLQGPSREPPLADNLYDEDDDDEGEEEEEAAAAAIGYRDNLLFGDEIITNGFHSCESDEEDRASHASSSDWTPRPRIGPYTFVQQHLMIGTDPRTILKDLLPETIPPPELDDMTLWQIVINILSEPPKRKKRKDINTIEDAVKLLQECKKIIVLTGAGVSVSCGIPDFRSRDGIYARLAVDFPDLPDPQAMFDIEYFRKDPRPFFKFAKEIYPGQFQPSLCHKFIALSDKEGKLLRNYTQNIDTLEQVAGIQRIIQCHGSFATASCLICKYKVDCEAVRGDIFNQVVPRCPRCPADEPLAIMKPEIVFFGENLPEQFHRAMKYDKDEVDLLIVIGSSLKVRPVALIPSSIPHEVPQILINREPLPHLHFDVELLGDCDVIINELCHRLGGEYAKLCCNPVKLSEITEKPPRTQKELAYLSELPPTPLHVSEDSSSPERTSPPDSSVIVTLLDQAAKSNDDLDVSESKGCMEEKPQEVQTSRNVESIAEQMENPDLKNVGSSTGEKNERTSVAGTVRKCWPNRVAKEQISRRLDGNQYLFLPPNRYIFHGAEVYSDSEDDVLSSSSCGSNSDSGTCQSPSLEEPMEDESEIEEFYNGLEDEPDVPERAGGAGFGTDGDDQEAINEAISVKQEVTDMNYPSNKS
Experiment: Mass spectrometry based assay for modulators of SIRT1 activity (deacetylation of p53-based acetylated peptide)
Type: biochemical
Settings: for EC1.5: concentration of test compound that results in 150% activation of SIRT1, 0.5 μM peptide substrate, 120 μM βNAD+, 10 nM SIRT1, 25 min, 25° C.; for Emax: percent maximum fold activation of SIRT1
Method in brief: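 Reaction: 10 nM His-tagged human SIRT1 (E. coli-expressed) with 0.5 μM 5TMR-labelled acetylated p53-derived peptide and 120 μM NAD+, 25 min at 25 °C, pH 8 Tris-acetate buffer; formic acid quench. Deacetylation quantified by mass spectrometry against a DMSO control; EC1.5 = concentration giving 150% activation.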

SMILES | EC1.5 | Emax [%]
O=C(Nc1nccs1)c1cccn2nc(-c3cc(Cl)ccc3C(F)(F)F)nc12 [Compound 223] | B (EC1.5 1-25 uM) | < 200
O=C(Nc1ccccn1)c1cccn2nc(-c3cc(Cl)ccc3C(F)(F)F)nc12 [Compound 224] | B (EC1.5 1-25 uM) | < 200
O=C(Nc1nccs1)c1cccn2nc(-c3ccccc3OC(F)F)nc12 [Compound 225] | B (EC1.5 1-25 uM) | > 200
O=C(Nc1nccs1)c1cccn2nc(-c3ccccc3OC(F)(F)F)nc12 [Compound 227] | B (EC1.5 1-25 uM) | > 200
O=C(Nc1ccccn1)c1cccn2nc(-c3ccccc3OC(F)(F)F)nc12 [Compound 228] | B (EC1.5 1-25 uM) | > 200
Cc1nc(C)c(-c2nc3c(C(=O)Nc4nccs4)cccn3n2)s1 [Compound 229] | C (EC1.5>25 uM) | < 200
O=C(Nc1nc(CN2CCOCC2)cs1)c1cccn2cc(-c3ccc(F)c(Cl)c3)nc12 [Compound 235] | A (EC1.5<1.0 uM) | > 200
O=C(Nc1nc(CN2CCOCC2)cs1)c1cccn2cc(-c3ccc(F)cc3C(F)(F)F)nc12 [Compound 237] | A (EC1.5<1.0 uM) | > 200
O=C(Nc1cccnn1)c1nccn2cc(-c3ccccc3OC(F)(F)F)nc12 [Compound 243] | B (EC1.5 1-25 uM) | > 200
O=C(Nc1ccncn1)c1nccn2cc(-c3ccccc3OC(F)(F)F)nc12 [Compound 244] | B (EC1.5 1-25 uM) | > 200
O=C(Nc1cnccn1)c1nccn2cc(-c3ccccc3OC(F)(F)F)nc12 [Compound 245] | A (EC1.5<1.0 uM) | > 200
O=C(Nc1ccncn1)c1nccn2cc(-c3ccc(F)cc3C(F)(F)F)nc12 [Compound 246] | A (EC1.5<1.0 uM) | > 200
O=C(Nc1cnccn1)c1nccn2cc(-c3ccc(F)cc3C(F)(F)F)nc12 [Compound 247] | B (EC1.5 1-25 uM) | > 200
O=C(Nc1ccccn1)c1cccn2nc(-c3ccc(OC[C@@H](O)CO)cc3C(F)F)nc12 [Compound 250] | B (EC1.5 1-25 uM) | > 200
O=C(Nc1nccs1)c1cccn2cc(-c3ccc(CN4CCCC4)cc3)nc12 [Compound 252] | B (EC1.5 1-25 uM) | > 200
O=C(Nc1ccccn1)c1cccn2cc(-c3ccc(CN4CCCC4)cc3)nc12 [Compound 253] | B (EC1.5 1-25 uM) | > 200
O=C(Nc1nccs1)c1cccn2cc(-c3cccc(CN4CCCC4)c3)nc12 [Compound 256] | B (EC1.5 1-25 uM) | > 200
O=C(Nc1ccccn1)c1cccn2cc(-c3cccc(CN4CCCC4)c3)nc12 [Compound 257] | B (EC1.5 1-25 uM) | > 200
O=C(Nc1nc(CN2CCOCC2)cs1)c1nccn2cc(-c3ccccc3C(F)(F)F)nc12 [Compound 258] | A (EC1.5<1.0 uM) | > 200
O=C(Nc1nc(CN2CCOCC2)cs1)c1nccn2cc(-c3ccc(F)cc3C(F)(F)F)nc12 [Compound 260] | A (EC1.5<1.0 uM) | > 200
O=C(Nc1nccs1)c1cccn2nc(-c3ccc(F)cc3C(F)F)nc12 [Compound 263] | C (EC1.5>25 uM) | < 200

Second part, the compound after the results:

EC1.5 | Emax [%] | SMILES
A (EC1.5<1.0 uM) | > 200 | O=C(Nc1nccs1)c1cccn2nc(-c3ccc(N4CCOCC4)cc3C(F)(F)F)nc12 [Compound 219, 2-(4-morpholino-2-(trifluoromethyl)phenyl)-N-(thiazol-2-yl)-[1,2,4]triazolo[1,5-a]pyridine-8-carboxamide]
A (EC1.5<1.0 uM) | > 200 | O=C(Nc1ccccn1)c1cccn2nc(-c3ccc(N4CCOCC4)cc3C(F)(F)F)nc12 [Compound 220]
A (EC1.5<1.0 uM) | > 200 | O=C(Nc1nccs1)c1cccn2nc(-c3cc(N4CCOCC4)ccc3C(F)(F)F)nc12 [Compound 221, 2-(5-morpholino-2-(trifluoromethyl)phenyl)-N-(thiazol-2-yl)-[1,2,4]triazolo[1,5-a]pyridine-8-carboxamide]
A (EC1.5<1.0 uM) | > 200 | O=C(Nc1ccccn1)c1cccn2nc(-c3cc(N4CCOCC4)ccc3C(F)(F)F)nc12 [Compound 222]
B (EC1.5 1-25 uM) | > 200 | O=C(Nc1ccccn1)c1cccn2nc(-c3ccccc3OC(F)F)nc12 [Compound 226]
C (EC1.5>25 uM) | < 200 | Cc1nc(C)c(-c2nc3c(C(=O)Nc4ccccn4)cccn3n2)s1 [Compound 230]
B (EC1.5 1-25 uM) | < 200 | O=C(Nc1nc(CN2CCOCC2)cs1)c1cccn2cc(-c3cccc(F)c3F)nc12 [Compound 231]
B (EC1.5 1-25 uM) | < 200 | O=C(Nc1cccc(CN2CCOCC2)n1)c1cccn2cc(-c3cccc(F)c3F)nc12 [Compound 232]
A (EC1.5<1.0 uM) | > 200 | O=C(Nc1nc(CN2CCOCC2)cs1)c1cccn2cc(-c3cccc(Cl)c3)nc12 [Compound 233]
A (EC1.5<1.0 uM) | > 200 | O=C(Nc1cccc(CN2CCOCC2)n1)c1cccn2cc(-c3cccc(Cl)c3)nc12 [Compound 234]
A (EC1.5<1.0 uM) | > 200 | O=C(Nc1cccc(CN2CCOCC2)n1)c1cccn2cc(-c3ccc(F)c(Cl)c3)nc12 [Compound 236]
A (EC1.5<1.0 uM) | > 200 | O=C(Nc1cccc(CN2CCOCC2)n1)c1cccn2cc(-c3ccc(F)cc3C(F)(F)F)nc12 [Compound 238]
C (EC1.5>25 uM) | < 200 | Cc1ncccc1-c1nc2c(C(=O)Nc3nccs3)cccn2n1 [Compound 239, 2-(2-methylpyridin-3-yl)-N-(thiazol-2-yl)-[1,2,4]triazolo[1,5-a]pyridine-8-carboxamide]
C (EC1.5>25 uM) | < 200 | Cc1ncccc1-c1nc2c(C(=O)Nc3ccccn3)cccn2n1 [Compound 240]
B (EC1.5 1-25 uM) | < 200 | Cc1ncccc1-c1nc2c(C(=O)Nc3nc(CN4CCOCC4)cs3)cccn2n1 [Compound 241]
B (EC1.5 1-25 uM) | > 200 | Cc1ncccc1-c1nc2c(C(=O)Nc3cccc(CN4CCOCC4)n3)cccn2n1 [Compound 242]
B (EC1.5 1-25 uM) | > 200 | O=C(Nc1ccccn1)c1cccn2nc(-c3ccc(OCCN4CCOCC4)cc3C(F)F)nc12 [Compound 248]
B (EC1.5 1-25 uM) | > 200 | O=C(Nc1ccccn1)c1cccn2cc(-c3ccc(CN4CCOCC4)cc3)nc12 [Compound 251]
A (EC1.5<1.0 uM) | > 200 | O=C(Nc1nccs1)c1cccn2cc(-c3cccc(CN4CCOCC4)c3)nc12 [Compound 254]
A (EC1.5<1.0 uM) | > 200 | O=C(Nc1ccccn1)c1cccn2cc(-c3cccc(CN4CCOCC4)c3)nc12 [Compound 255]
A (EC1.5<1.0 uM) | > 200 | O=C(Nc1cccc(CN2CCOCC2)n1)c1nccn2cc(-c3ccccc3C(F)(F)F)nc12 [Compound 259]
A (EC1.5<1.0 uM) | > 200 | O=C(Nc1cccc(CN2CCOCC2)n1)c1nccn2cc(-c3ccc(F)cc3C(F)(F)F)nc12 [Compound 261]
B (EC1.5 1-25 uM) | > 200 | O=C(Nc1nccs1)c1cccn2cc(-c3ccc(CN4CCOCC4)cc3)nc12 [Compound 262, 2-(4-(morpholinomethyl)phenyl)-N-(thiazol-2-yl)imidazo[1,2-a]pyridine-8-carboxamide]
B (EC1.5 1-25 uM) | < 200 | O=C(Nc1nccs1)c1cccn2nc(-c3ccc(OCCN4CCOCC4)cc3C(F)F)nc12 [Compound 265, 2-(2-(difluoromethyl)-4-(2-morpholinoethoxy)phenyl)-N-(thiazol-2-yl)-[1,2,4]triazolo[1,5-a]pyridine-8-carboxamide]
